What was measured:
[1] = target: T1, Bifunctional epoxide hydrolase 2 (Homo sapiens, UniProt P34913); assay: Inhibition of His-tagged human recombinant soluble epoxide hydrolase pre-incubated for 15 mins before Epoxy-fluor7 substrate addition and measured after 20 mins by fluorescence based assay
T1 sequence (P34913 whole entry): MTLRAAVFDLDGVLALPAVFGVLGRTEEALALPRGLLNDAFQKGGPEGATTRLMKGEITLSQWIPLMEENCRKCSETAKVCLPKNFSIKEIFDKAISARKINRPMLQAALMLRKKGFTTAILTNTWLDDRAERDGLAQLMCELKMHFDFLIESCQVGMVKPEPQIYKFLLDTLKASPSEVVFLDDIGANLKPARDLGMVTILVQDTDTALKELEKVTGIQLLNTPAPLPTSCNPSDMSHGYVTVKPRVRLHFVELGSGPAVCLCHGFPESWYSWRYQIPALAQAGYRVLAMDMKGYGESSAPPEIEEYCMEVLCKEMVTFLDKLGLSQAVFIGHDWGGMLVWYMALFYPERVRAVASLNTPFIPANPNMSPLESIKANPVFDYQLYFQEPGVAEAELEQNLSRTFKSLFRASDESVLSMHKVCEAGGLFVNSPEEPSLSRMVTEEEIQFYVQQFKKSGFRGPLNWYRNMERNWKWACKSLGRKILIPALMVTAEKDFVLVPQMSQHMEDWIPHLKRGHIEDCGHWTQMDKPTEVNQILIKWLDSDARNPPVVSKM

Estrogen receptor = target: T2, Estrogen receptor (Homo sapiens, UniProt P03372); assay: Inhibition of His-tagged human ERalpha pre-incubated for 15 mins before fluorescent ligand addition and measured after 1 hr by fluorescence polarization assay
T2 sequence (P03372 whole entry): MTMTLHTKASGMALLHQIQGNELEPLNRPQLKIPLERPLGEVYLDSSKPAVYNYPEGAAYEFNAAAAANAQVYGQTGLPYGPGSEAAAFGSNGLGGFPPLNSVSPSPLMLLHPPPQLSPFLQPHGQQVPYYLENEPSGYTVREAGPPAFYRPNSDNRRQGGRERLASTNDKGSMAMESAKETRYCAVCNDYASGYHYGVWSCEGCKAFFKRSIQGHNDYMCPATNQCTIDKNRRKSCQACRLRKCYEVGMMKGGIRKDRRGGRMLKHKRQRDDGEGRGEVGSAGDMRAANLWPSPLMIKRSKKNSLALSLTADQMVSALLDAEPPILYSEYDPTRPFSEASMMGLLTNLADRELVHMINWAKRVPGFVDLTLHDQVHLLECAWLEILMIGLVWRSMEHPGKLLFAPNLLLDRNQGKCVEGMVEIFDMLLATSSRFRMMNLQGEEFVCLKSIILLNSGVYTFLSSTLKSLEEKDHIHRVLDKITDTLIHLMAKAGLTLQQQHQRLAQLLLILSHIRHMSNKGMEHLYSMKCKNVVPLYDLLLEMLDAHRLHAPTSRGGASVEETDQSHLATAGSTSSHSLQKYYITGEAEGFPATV

[2] = target: Mast/stem cell growth factor receptor Kit (Homo sapiens, UniProt P10721); assay: Inhibition of recombinant c-Kit (unknown origin) incubated for 1 hr by ADP-Glo assay
Mast/stem cell growth factor receptor Kit, sequence (P10721 whole entry): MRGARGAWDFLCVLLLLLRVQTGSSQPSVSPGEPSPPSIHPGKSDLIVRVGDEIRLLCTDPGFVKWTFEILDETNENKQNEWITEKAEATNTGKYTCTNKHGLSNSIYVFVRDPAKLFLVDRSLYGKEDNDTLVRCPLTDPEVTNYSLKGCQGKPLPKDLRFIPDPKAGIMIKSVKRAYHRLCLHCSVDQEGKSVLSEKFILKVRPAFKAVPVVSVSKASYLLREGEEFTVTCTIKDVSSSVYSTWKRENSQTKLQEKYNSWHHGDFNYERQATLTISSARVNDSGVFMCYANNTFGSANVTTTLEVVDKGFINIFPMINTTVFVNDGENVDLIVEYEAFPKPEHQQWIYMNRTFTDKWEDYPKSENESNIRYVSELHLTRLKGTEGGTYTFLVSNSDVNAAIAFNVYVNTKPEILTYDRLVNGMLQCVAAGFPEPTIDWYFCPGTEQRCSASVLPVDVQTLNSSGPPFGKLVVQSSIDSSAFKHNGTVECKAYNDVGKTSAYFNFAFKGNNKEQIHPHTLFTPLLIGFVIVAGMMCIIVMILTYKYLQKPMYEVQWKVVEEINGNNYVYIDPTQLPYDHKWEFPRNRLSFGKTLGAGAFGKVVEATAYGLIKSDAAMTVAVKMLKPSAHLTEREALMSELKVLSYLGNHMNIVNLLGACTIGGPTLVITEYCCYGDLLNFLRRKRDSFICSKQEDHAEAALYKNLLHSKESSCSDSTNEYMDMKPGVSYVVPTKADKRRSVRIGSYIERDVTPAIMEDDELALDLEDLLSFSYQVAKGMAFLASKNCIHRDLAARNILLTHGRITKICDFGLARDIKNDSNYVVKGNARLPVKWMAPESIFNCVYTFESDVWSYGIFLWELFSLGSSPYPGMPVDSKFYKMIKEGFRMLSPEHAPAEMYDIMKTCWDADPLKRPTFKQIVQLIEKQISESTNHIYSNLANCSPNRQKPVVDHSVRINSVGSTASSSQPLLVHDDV

SMILES | IC50 [1] [nM] | IC50 (Estrogen receptor) [nM] | IC50 [2] [nM]
O=C(NC1CCC2CCCC2C1)C1CCCN(S(=O)(=O)c2cccs2)C1 (stereo unspecified) | 2 | – | –
CN1c2ccccc2C2(C)CCCC3Cc4cc(Br)cc(Br)c4OC312 (stereo unspecified) | – | 20 | –
CC(C)COC(=O)N1CCN(C(=O)C=CC(=O)Nc2ccc(Cl)cc2)CC1 | – | – | 21
CC(OC(=O)c1ccc2nc(N)sc2c1)C(=O)Nc1ccc(C(C)(C)C)cc1 (stereo unspecified) | – | – | 9
Cc1ccccc1C(OC(c1ccccc1C)c1ccccc1C)c1ccccc1C | – | 8 | –
O=C(Nc1ccc(Sc2ccccc2Cl)cc1)C1CCN(C(=O)c2ccc(F)cc2)CC1 | 1 | – | –

Reference: ChEMBL document CHEMBL4725248, “Machine Learning on DNA-Encoded Libraries: A New Paradigm for Hit Finding” (J Med Chem, 2020)
